Test results published in publication PMC7145288, “New Peptide-Based Pharmacophore Activates 20S Proteasome” (Molecules, 2020).
“Also recorded” adds a separate entry of the source.

Key:
[1] = target: T1, core proteasome, post glutamyl peptide hydrolyzing (PGPH) activity (Homo sapiens, UniProt P25787+P60900); assay: PGPH peptidase activity of latent 20S proteasome (Z-LLE-AMC); assay type: biochemical; conditions: 100 μM Z-LLE-AMC, n = 3–4
T1 construct: Human housekeeping core (20S) proteasome purified from erythrocytes; purchased Boston Biochem, Inc. or Enzo Life Sciences, Inc; host or cells: human erythrocytes (natural source)
Experimental: (§1) Human housekeeping core (20S) proteasome purified from erythrocytes was purchased from Boston Biochem, Inc. (Cambridge, MA) or from Enzo Life Sciences, Inc. (Farmingdale, NY). Multiple batches of the proteasomes were used and performed reproducibly. The stock proteasome was diluted to 0.2 mg/mL working solution in “dilution buffer” (50 mM Tris/HCl, pH 8, 20% glycerol). The following model peptide substrates, all releasing fluorescent 7-amino-4-methylcoumarin (AMC) reporter group after cleavage, were used: succinyl-LeuLeuValTyr-AMC (for the ChT-L peptidase; SucLLVY-AMC; Bachem Bioscience Inc., Philadelphia, PA), butoxycarbonyl-LeuArgArg-AMC (T-L; Bachem Bioscience Inc., Philadelphia, PA) and carbobenzoxy- LeuLeuGlu-AMC (PGPH; Enzo Life Sciences Inc., Farmingdale, NY). The substrates were used at concentration of 50 μM (ChT-L) or 100 μM (T-L, PGPH). […] After mixing, the plate was transferred to a Fluoroskan Ascent plate reader (Thermo Fisher Scientific Inc., Waltham, MA) for 1 h (37 °C), with fluorescence readouts once per minute. […] The reaction rates were calculated from a linear segment of kinetic curves constructed from measurements in 1-min intervals. Reaction rates were calculated using a linear fit performed with the Slope Analyser and Enzyme Kinetics applications launched within Origin Pro 2019 (OriginLab Corporation, Northampton, MA). […]

[2] = target: T2, core proteasome, trypsin-like (T-L) activity (Homo sapiens, UniProt P25787+P60900); assay: T-L peptidase activity of latent 20S proteasome (Boc-LRR-AMC); assay type: biochemical; conditions: 100 μM Boc-LRR-AMC, n = 3–4
T2 construct: Human housekeeping core (20S) proteasome purified from erythrocytes; purchased Boston Biochem, Inc. or Enzo Life Sciences, Inc; host or cells: human erythrocytes (natural source)
Experimental: as §1

SMILES | Effect on PGPH activity (in words) [1] | Effect on T-L activity (in words) [2]
NCCCC[C@H](NC(=O)[C@H](CCCCN)NC(=O)[C@H](CCCCN)NC(=O)c1cc(NC(=O)[C@H](CCCCN)NC(=O)[C@H](CCCCN)NC(=O)[C@@H](N)CCCCN)cc(NC(=O)[C@H](CCCCN)NC(=O)[C@H](CCCCN)NC(=O)[C@@H](N)CCCCN)c1)C(=O)O [(8)] | weak inhibitory effects; also recorded: did not seem to significantly affect | weak inhibitory effects; also recorded: did not seem to significantly affect
N=C(N)NCCC[C@H](NC(=O)CN)C(=O)N[C@@H](CCCCN)C(=O)N[C@@H](CCCCN)C(=O)N[C@@H](CCCNC(=N)N)C(=O)N[C@@H](CCCNC(=N)N)C(=O)N[C@@H](CCC(N)=O)C(=O)N1Cc2ccccc2C[C@H]1C(=O)N1[C@@H](C(=O)N[C@@H](CCCNC(=N)N)C(=O)N2CCC[C@H]2C(=O)N[C@@H](CO)C(=O)O)C[C@H]2CCCC[C@H]21 [(5)] | weak inhibitory effects; also recorded: did not seem to significantly affect | weak inhibitory effects; also recorded: did not seem to significantly affect
